Biological target: JAK2 (JH1 domain-catalytic, Y1007F, Y1008F) kinase (Homo sapiens (Human), UniProt O60674, Y1007F/Y1008F)
Assay: JAK2 JH1 Domain Binding Assay
Settings: qPCR readout
Procedure, shortened: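 JH1 catalytic domain (Y1007F/Y1008F) expressed as NFkB DNA-binding-domain fusion in HEK293 cells, DNA-tagged. Competition with immobilized biotinylated ligand on streptavidin beads, 1 h at RT in PBS/Tween/BSA/DTT; bound kinase eluted with free ligand and quantified by qPCR.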

JAK2 (JH1 domain-catalytic, Y1007F, Y1008F) kinase, sequence (O60674 849-1124 Y1007F/Y1008F): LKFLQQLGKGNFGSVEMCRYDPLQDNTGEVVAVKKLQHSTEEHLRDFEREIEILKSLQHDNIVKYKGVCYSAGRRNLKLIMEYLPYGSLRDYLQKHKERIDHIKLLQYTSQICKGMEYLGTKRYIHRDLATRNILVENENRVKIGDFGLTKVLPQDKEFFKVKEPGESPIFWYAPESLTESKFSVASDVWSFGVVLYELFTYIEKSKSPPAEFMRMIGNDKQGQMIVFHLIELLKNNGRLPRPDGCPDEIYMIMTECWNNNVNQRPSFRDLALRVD

| Kd | SMILES |
| --- | --- |
| < 10 nM | COCc1cc2nc(N3CC[C@H](N(C)C(=O)Nc4cc(C(F)(F)F)cn(C)c4=O)[C@H](C)C3)cnc2[nH]1 [Example I-159-a, 1-((3R,4S)-1-(6-(methoxymethyl)-5H-pyrrolo[2,3-b]pyrazin-2-yl)-3-methylpiperidin-4-yl)-1-methyl-3-(1-methyl-2-oxo-5-(trifluoromethyl)-1,2-dihydropyridin-3-yl)urea] |
| 10 to 50 nM | COCCOc1n[nH]c2ncc(N3CC[C@@H]4[C@@H](C3)OCCN4C(=O)Nc3cc(C(F)(F)F)cn(C)c3=O)cc12 [Example I-162-b, (4aR,8aR)-6-(3-(2-methoxyethoxy)-1H-pyrazolo[3,4-b]pyridin-5-yl)-N-(1-methyl-2-oxo-5-(trifluoromethyl)-1,2-dihydropyridin-3-yl)octahydro-1H-pyrido[3,4-b][1,4]oxazine-1-carboxamide] |
| 10 to 50 nM | COc1c[nH]c2ncc(N3CC[C@@H]4[C@@H](C3)OCCN4C(=O)Nc3cc(C(F)(F)F)cn(C)c3=O)nc12 [Example I-163-b, (4aR,8aR)-6-(7-methoxy-5H-pyrrolo[2,3-b]pyrazin-2-yl)-N-(1-methyl-2-oxo-5-(trifluoromethyl)-1,2-dihydropyridin-3-yl)octahydro-1H-pyrido[3,4-b][1,4]oxazine-1-carboxamide] |
| 50 to 1000 nM | COCc1cc2nc(N3CC[C@H]4[C@H](C3)OCCN4C(=O)Nc3cc(C(F)(F)F)cn(C)c3=O)cnc2[nH]1 [Example I-164-a, (4aS,8aS)-6-(6-(methoxymethyl)-5H-pyrrolo[2,3-b]pyrazin-2-yl)-N-(1-methyl-2-oxo-5-(trifluoromethyl)-1,2-dihydropyridin-3-yl)octahydro-1/-pyrido[3,4-b][1,4]oxazine-1-carboxamide] |
| 50 to 1000 nM | COc1c[nH]c2ncc([C@H]3CC[C@@H](N(C)C(=O)Nc4cc(C(F)(F)F)cn(C)c4=O)CC3)nc12 [Example I-171, cis-1-(4-(7-methoxy-5H-pyrrolo[2,3-b]pyrazin-2-yl)cyclohexyl)-1-methyl-3-(1-methyl-2-oxo-5-(trifluoromethyl)-1,2-dihydropyridin-3-yl)urea] |
| < 10 nM | CN(C(=O)Nc1cc(C(C)(C)C)n([C@@H]2CCOC2)n1)C1CCN(c2cnc3[nH]ncc3c2)CC1 [Example I-173, (R)-1-(1-(1H-pyrazolo[3,4-b]pyridin-5-yl)piperidin-4-yl)-3-(5-(tert-butyl)-1-(tetrahydrofuran-3-yl)-1H-pyrazol-3-yl)-1-methylurea] |
| < 10 nM | CN(C(=O)Nc1cc(C(C)(C)C)n([C@H]2CCOC2)n1)C1CCN(c2cnc3[nH]ncc3c2)CC1 [Example I-174, (S)-1-(1-(1H-pyrazolo[3,4-b]pyridin-5-yl)piperidin-4-yl)-3-(5-(tert-butyl)-1-(tetrahydrofuran-3-yl)-1H-pyrazol-3-yl)-1-methylurea] |
| < 10 nM | CN(C(=O)Nc1cc(C(F)(F)F)ccn1)[C@@H]1CCN(c2cnc3[nH]ncc3c2)C[C@H]1F [Example I-175, 1-((3R,4R)-3-fluoro-1-(1H-pyrazolo[3,4-b]pyridin-5-yl)piperidin-4-yl)-1-methyl-3-(4-(trifluoromethyl)pyridin-2-yl)urea] |
| < 10 nM | CN(C(=O)Nc1cc(C(F)(F)F)ccn1)[C@H]1CCN(c2cnc3[nH]ncc3c2)C[C@@H]1F [Example I-176, 1-((3S,4S)-3-fluoro-1-(1H-pyrazolo[3,4-b]pyridin-5-yl)piperidin-4-yl)-1-methyl-3-(4-(trifluoromethyl)pyridin-2-yl)urea] |
| < 10 nM | Cc1cc(C(F)(F)F)cc(NC(=O)N(C)[C@H]2CCN(c3cnc4[nH]ncc4c3)C[C@@H]2F)n1 [Example I-178, 1-((35,4S)-3-fluoro-1-(1H-pyrazolo[3,4-b]pyridin-5-yl)piperidin-4-yl)-1-methyl-3-(6-methyl-4-(trifluoromethyl)pyridin-2-yl)urea] |
| 10 to 50 nM | CN(C(=O)Nc1cc(C(F)(F)F)cn(C)c1=O)C12CC(c3ccc(NC(=O)C4CC4)nc3)(C1)C2 [Example I-179, N-(5-(3-(1-methyl-3-(1-methyl-2-oxo-5-(trifluoromethyl)-1,2-dihydropyridin-3-yl)ureido)bicyclo[1.1.1]pentan-1-yl)pyridin-2-yl)cyclopropanecarboxamnide] |
| < 10 nM | CN(C(=O)Nc1cc(C(F)(F)F)n([C@@H]2CCOC2)n1)C1CCN(c2cnc3[nH]ncc3c2)CC1 [Example I-180, (R)-1-(1-(1H-pyrazolo[3,4-b]pyridin-5-yl)piperidin-4-yl)-1-methyl-3-(1-(tetrahydrofuran-3-yl)-5-(trifluoromethyl)-1H-pyrazol-3-yl)urea] |

Second part, the compound before the results:

| SMILES | Kd |
| --- | --- |
| COc1n[nH]c2ncc(C34CC(N(C)C(=O)Nc5cc(C(F)(F)F)cn(C)c5=O)(C3)C4)cc12 [Example I-156, 1-(3-(3-methoxy-1H-pyrazolo[3,4-b]pyridin-5-yl)bicyclo[1.1.1]pentan-1-yl)-1-methyl-3-(1-methyl-2-oxo-5-(trifluoromethyl)-1,2-dihydropyridin-3-yl)urea] | < 10 nM |
| COCCOc1n[nH]c2ncc(C34CC(N(C)C(=O)Nc5cc(C(F)(F)F)cn(C)c5=O)(C3)C4)cc12 [Example I-157, 1-(3-(3-(2-methoxyethoxy)-1H-pyrazolo[3,4-b]pyridin-5-yl)bicyclo[1.1.1]pentan-1-yl)-1-methyl-3-(1-methyl-2-oxo-5-(trifluoromethyl)-1,2-dihydropyridin-3-yl)urea] | < 10 nM |
| CN(C(=O)Nc1cc(C(F)(F)F)cn(C)c1=O)C12CC(c3cnc4[nH]nc(OC[C@H]5COCCO5)c4c3)(C1)C2 [Example I-158, (R)-1-(3-(3-((1,4-dioxan-2-yl)methoxy)-1H-pyrazolo[3,4-b]pyridin-5-yl)bicyclo[1.1.1]pentan-1-yl)-1-methyl-3-(1-methyl-2-oxo-5-(trifluoromethyl)-1,2-dihydropyridin-3-yl)urea] | < 10 nM |
| COCc1cc2nc(N3CC[C@@H](N(C)C(=O)Nc4cc(C(F)(F)F)cn(C)c4=O)[C@@H](C)C3)cnc2[nH]1 [Example I-159-b, 1-((3S,4R)-1-(6-(methoxymethyl)-5H-pyrrolo[2,3-b]pyrazin-2-yl)-3-methylpiperidin-4-yl)-1-methyl-3-(1-methyl-2-oxo-5-(trifluoromethyl)-1,2-dihydropyridin-3-yl)urea] | < 10 nM |
| COc1c[nH]c2ncc(N3CC[C@H](N(C)C(=O)Nc4cc(C(F)(F)F)cn(C)c4=O)C[C@@H]3C)nc12 [Example I-161-a, 1-((2S,4S)-1-(7-methoxy-5H-pyrrolo[2,3-b]pyrazin-2-yl)-2-methylpiperidin-4-yl)-1-methyl-3-(1-methyl-2-oxo-5-(trifluoromethyl)-1,2-dihydropyridin-3-yl)urea] | 50 to 1000 nM |
| COc1c[nH]c2ncc(N3CC[C@@H](N(C)C(=O)Nc4cc(C(F)(F)F)cn(C)c4=O)C[C@H]3C)nc12 [Example I-161-b, 1-((2R,4R)-1-(7-methoxy-5H-pyrrolo[2,3-b]pyrazin-2-yl)-2-methylpiperidin-4-yl)-1-methyl-3-(1-methyl-2-oxo-5-(trifluoromethyl)-1,2-dihydropyridin-3-yl)urea] | 10 to 50 nM |
| COCCOc1n[nH]c2ncc(N3CC[C@H]4[C@H](C3)OCCN4C(=O)Nc3cc(C(F)(F)F)cn(C)c3=O)cc12 [Example I-162-a, (4aS,8aS)-6-(3-(2-methoxyethoxy)-1H-pyrazolo[3,4-b]pyridin-5-yl)-N-(1-methyl-2-oxo-5-(trifluoromethyl)-1,2-dihydropyridin-3-yl)octahydro-1H-pyrido[3,4-b][1,4]oxazine-1-carboxamide] | < 10 nM |
| COc1c[nH]c2ncc(N3CC[C@H]4[C@H](C3)OCCN4C(=O)Nc3cc(C(F)(F)F)cn(C)c3=O)nc12 [Example I-163-a, (4aS,8aS)-6-(7-methoxy-5H-pyrrolo[2,3-b]pyrazin-2-yl)-N-(1-methyl-2-oxo-5-(trifluoromethyl)-1,2-dihydropyridin-3-yl)octahydro-1H-pyrido[3,4-b][1,4]oxazine-1-carboxamide] | 10 to 50 nM |
| COCc1cc2nc(N3CC[C@@H]4[C@@H](C3)OCCN4C(=O)Nc3cc(C(F)(F)F)cn(C)c3=O)cnc2[nH]1 [Example I-164-b, (4aR,8aR)-6-(6-(methoxymethyl)-5H-pyrrolo[2,3-b]pyrazin-2-yl)-N-(1-methyl-2-oxo-5-(trifluoromethyl)-1,2-dihydropyridin-3-yl)octahydro-1H-pyrido[3,4-b][1,4]oxazine-1-carboxamide] | 10 to 50 nM |
| CN(C(=O)Nc1cc(C(F)(F)F)cn(C)c1=O)C12CCC(c3cnc4[nH]ncc4c3)(CC1)OC2 [Example I-168, 1-(1-(1H-pyrazolo[3,4-b]pyridin-5-yl)-2-oxabicyclo[2.2.2]octan-4-yl)-1-methyl-3-(1-methyl-2-oxo-5-(trifluoromethyl)-1,2-dihydropyridin-3-yl)urea] | < 10 nM |
| COc1c[nH]c2ncc([C@H]3CC[C@H](N(C)C(=O)Nc4cc(C(F)(F)F)cn(C)c4=O)CC3)nc12 [Example I-170, trans-1-(4-(7-methoxy-5H-pyrrolo[2,3-b]pyrazin-2-yl)cyclohexyl)-1-methyl-3-(1-methyl-2-oxo-5-(trifluoromethyl)-1,2-dihydropyridin-3-yl)urea] | < 10 nM |
| Cc1cc(C(F)(F)F)cc(NC(=O)N(C)[C@@H]2CCN(c3cnc4[nH]ncc4c3)C[C@H]2F)n1 [Example I-177, 1-((3R,4R)-3-fluoro-1-(1H-pyrazolo[3,4-b]pyridin-5-yl)piperidin-4-yl)-1-methyl-3-(6-methyl-4-(trifluoromethyl)pyridin-2-yl)urea] | < 10 nM |
| CN(C(=O)Nc1cc(C(F)(F)F)n([C@H]2CCOC2)n1)C1CCN(c2cnc3[nH]ncc3c2)CC1 [Example I-181, (S)-1-(1-(1H-pyrazolo[3,4-b]pyridin-5-yl)piperidin-4-yl)-1-methyl-3-(1-(tetrahydrofuran-3-yl)-5-(trifluoromethyl)-1H-pyrazol-3-yl)urea] | < 10 nM |
| CCN1CCN(Cc2ccc(NC(=O)N(C)C3CCN(c4cnc5[nH]nc(OC)c5c4)CC3)cc2C(F)(F)F)CC1 [Example I-182, 3-(4-((4-ethylpiperazin-1-yl)methyl)-3-(trifluoromethyl)phenyl)-1-(1-(3-methoxy-1H-pyrazolo[3,4-b]pyridin-5-yl)piperidin-4-yl)-1-methylurea] | < 10 nM |

Source: patent US20240116892A1, “HETEROCYCLIC AMIDE AND UREA COMPOUNDS AS JAK2 INHIBITORS” (Ajax Therapeutics, Inc., priority 2022, published 2024)
